Measured values taken from patent publication US10501421B1, “Substituted benzimidazoles as modulators of Ras signaling” (VANDERBILT UNIVERSITY, priority 2017, dated 2019).
Counter-ions that a name gives are not always drawn.

Columns and labels:
[1] = target: Ras GEF SOS (Son of Sevenless) (Homo sapiens, UniProt Q07889); test: SOS-mediated nucleotide exchange on Ras (BODIPY-GDP fluorescence); format: biochemical; details: SOS-mediated exchange of BODIPY-GDP for GTP on Ras
Outline: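 Exchange rates were taken from single-exponential fits of the fluorescence time course as BODIPY-GDP on Ras was replaced by GTP. Compound went in first, then GTP and SOS. Mean rates plotted against concentration gave EC50 by four-parameter dose-response fitting.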

Son of Sevenless (SOS) = target: T1, Son of Sevenless (SOS) (Homo sapiens, UniProt Q07889); test: Binding to SOS, fluorescence polarization anisotropy (FPA) probe displacement; details: displacement of FITC-conjugated probe (Example 285), affinity calculated from IC50
T1 sequence (Q07889 564-1049 limits assumed): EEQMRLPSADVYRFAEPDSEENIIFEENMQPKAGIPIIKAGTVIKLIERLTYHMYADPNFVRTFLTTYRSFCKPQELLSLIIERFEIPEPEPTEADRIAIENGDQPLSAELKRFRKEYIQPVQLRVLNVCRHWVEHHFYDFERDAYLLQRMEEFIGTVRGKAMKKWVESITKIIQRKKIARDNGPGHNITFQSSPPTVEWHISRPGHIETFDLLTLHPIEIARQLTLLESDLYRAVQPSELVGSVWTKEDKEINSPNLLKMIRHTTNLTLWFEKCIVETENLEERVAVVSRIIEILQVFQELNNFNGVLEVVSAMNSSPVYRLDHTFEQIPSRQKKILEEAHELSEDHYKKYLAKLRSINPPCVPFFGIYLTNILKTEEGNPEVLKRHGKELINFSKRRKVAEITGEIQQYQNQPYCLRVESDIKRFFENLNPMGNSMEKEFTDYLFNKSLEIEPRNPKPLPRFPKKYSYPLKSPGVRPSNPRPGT
Experimental: Compounds of the present invention were tested for their ability to bind to the Ras guanine exchange factor (GEF) Son of Sevenless (SOS). Binding to SOS was measured using a Fluorescence polarization anisotropy (FPA) assay that assesses the ability of a test compound to displace a fluorescent FITC-conjugated compound (Example 285). Briefly, the labeled probe compound is incubated with SOS in buffer. Changes in anisotropy indicative of displacement of the labeled probe for a test compound are assessed over a dose range of test compound. Data was analyzed by plotting fluorescence anisotropy values as a function of compound concentration. IC50 values were determined using a four-parameter dose-response (variable slope) and binding affinities were calculated from this IC50 value. This assay is performed in a method analogous to the assay disclosed in: Burns, M. C.; Sun, Q.; Daniels, R. N.; Camper, D. V.; Kennedy, J. P.; Phan, J.; Olejniczak, E. O.; Lee, T.; Waterson, A. G.; Rossanese, O. W.; Fesik, S. W. “Approach for targeting Ras with small molecules that activate SOS-mediated nucleotide exchange” Proc. Natl. Acad. Sci. 2014; 11(9): 3401-3406. PMCID: PMC3948241.

Chain of Ras GEF SOS (Son of Sevenless) (P01112 1-166 partner limits assumed, one chain of several): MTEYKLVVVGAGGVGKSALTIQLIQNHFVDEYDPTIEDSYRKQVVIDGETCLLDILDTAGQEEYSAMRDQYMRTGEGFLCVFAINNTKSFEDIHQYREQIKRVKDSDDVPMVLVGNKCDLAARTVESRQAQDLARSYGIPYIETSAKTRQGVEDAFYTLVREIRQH

Row | SMILES | EC50 [1] [µM] | Ki (Son of Sevenless (SOS)) [µM]
1 | Cc1cc2nc(N3CCNCC3)n(CC3CCCCC3)c2cc1C [Example 37, 1-(cyclohexylmethyl)-5,6-dimethyl-2-(piperazin-1-yl)-1H-benzo[d]imidazole trifluoroacetate] | 5 to 30 | > 5
2 | Cc1cc2nc(NCCN)n(CC3CCCCC3)c2cc1C [Example 38, N^1-(1-(cyclohexylmethyl)-5,6-dimethyl-1H-benzo[d]imidazol-2-yl)ethane-1,2-diamine trifluoroacetate] | 5 to 30 | > 5
3 | Cc1cc2nc(N3CCNCC3)n(Cc3ccc(Br)c(Cl)c3)c2cc1C [Example 39, 1-(4-bromo-3-chlorobenzyl)-5,6-dimethyl-2-(piperazin-1-yl)-1H-benzo[d]imidazole trifluoroacetate] | 1 to 5 | > 5
4 | Cc1cc2nc(N3CCNCC3)n(Cc3ccc(F)c(C(F)(F)F)c3)c2cc1C [Example 40, 1-(4-fluoro-3-(trifluoromethyl)benzyl)-5,6-dimethyl-2-(piperazin-1-yl)-1H-benzo[d]imidazole trifluoracetate] | 5 to 30 | > 5
5 | Cc1cc2nc(N3CCNCC3)n(Cc3cc(C)c(F)c(C)c3)c2cc1C [Example 41, 1-(4-fluoro-3,5-dimethylbenzyl)-5,6-dimethyl-2-(piperazin-1-yl)-1H-benzo[d]imidazole trifluoroacetate] | 1 to 5 | > 5
6 | Cc1cc2nc(NCCN)n(Cc3cc(C)c(F)c(C)c3)c2cc1C [Example 42, N^1-(1-(4-fluoro-3,5-dimethylbenzyl)-5,6-dimethyl-1H-benzo[d]imidazol-2-yl)ethane-1,2-diamine trifluoroacetate] | 1 to 5 | 1 to 5
7 | Cc1cc2nc(NCCCN)n(Cc3cc(C)c(F)c(C)c3)c2cc1C [Example 43, N^1-(1-(4-fluoro-3,5-dimethylbenzyl)-5,6-dimethyl-1H-benzo[d]imidazol-2-yl)propane-1,3-diamine trifluoroacetate] | 5 to 30 | > 5
8 | Clc1ccc(Cn2c(C3CCNCC3)nc3ccccc32)cc1 [Example 58, 1-(4-chlorobenzyl)-2-(piperidin-4-yl)-1H-benzo[d]imidazole trifluoroacetate] | 5 to 30 | > 5
9 | Fc1ccc(Cn2c(N3CCNCC3)nc3ccc(C4CC4)cc32)cc1Cl [Example 62, 1-(3-chloro-4-fluorobenzyl)-6-cyclopropyl-2-(piperazin-1-yl)-1H-benzo[d]imidazole trifluoroacetate] | 5 to 30 | > 5
10 | Cc1cc2nc(NCCN)n(Cc3ccc(F)c(Cl)c3)c2cc1Br [Example 64, N^1-(6-bromo-1-(3-chloro-4-fluorobenzyl)-5-methyl-1H-benzo[d]imidazol-2-yl)ethane-1,2-diamine trifluoroacetate] | 1 to 5 | 0.5 to 1
11 | C=Cc1cc2c(cc1C)nc(NCCN)n2Cc1ccc(F)c(Cl)c1 [Example 65, N^1-(1-(3-chloro-4-fluorobenzyl)-5-methyl-6-vinyl-1H-benzo[d]imidazol-2-yl)ethane-1,2-diamine trifluoroacetate] | 1 to 5 | 1 to 5
12 | Cc1cc2nc(NCCN)n(Cc3ccc(F)c(Cl)c3)c2cc1Cl [Example 69, N^1-(6-chloro-1-(3-chloro-4-fluorobenzyl)-5-methyl-1H-benzo[d]imidazol-2-yl)ethane-1,2-diamine trifluoroacetate] | < 1 | 0.5 to 1
13 | Cc1cc2c(cc1Br)nc(N1CCNCC1)n2Cc1ccc(F)c(Cl)c1 [Example 70, 5-bromo-1-(3-chloro-4-fluorobenzyl)-6-methyl-2-(piperazin-1-yl)-1H-benzo[d]imidazole trifluoroacetate] | 1 to 5 | 1 to 5
14 | NCCNc1nc2ccc(C(F)(F)F)cc2n1Cc1ccc(F)c(Cl)c1 [Example 72, N^1-(1-(3-chloro-4-fluorobenzyl)-6-(trifluoromethyl)-1H-benzo[d]imidazol-2-yl)ethane-1,2-diamine trifluoroacetate] | 1 to 5 | 1 to 5
15 | Fc1ccc(Cn2c(N3CCNCC3)nc3ccc(Cl)cc32)cc1Cl [Example 73, 6-chloro-1-(3-chloro-4-fluorobenzyl)-2-(piperazin-1-yl)-1H-benzo[d]imidazole trifluoroacetate] | < 1 | 0.5 to 1
16 | NCCNc1nc2ccc(Cl)cc2n1Cc1ccc(F)c(Cl)c1 [Example 74, N^1-(6-chloro-1-(3-chloro-4-fluorobenzyl)-1H-benzo[d]imidazol-2-yl)ethane-1,2-diamine trifluoroacetate] | < 1 | 0.5 to 1
17 | Fc1cc(F)cc(Cn2c(N3CCNCC3)nc3c(-c4ccccc4F)cccc32)c1 [Example 90, 1-(3,5-difluorobenzyl)-4-(2-fluorophenyl)-2-(piperazin-1-yl)-1H-benzo[d]imidazole] | 1 to 5 | 1 to 5

Other lines, results leading:

Row | EC50 [1] [µM] | Ki (Son of Sevenless (SOS)) [µM] | SMILES
18 | 5 to 30 | > 5 | Cc1cc2nc(NCCN(C)C)n(Cc3cc(C)c(F)c(C)c3)c2cc1C [Example 44, N^1-(1-(4-fluoro-3,5-dimethylbenzyl)-5,6-dimethyl-1H-benzo[d]imidazol-2-yl)-N^2,N^2-dimethylethane-1,2-diamine trifluoroacetate]
19 | 5 to 30 | > 5 | CNCCN(C)c1nc2cc(C)c(C)cc2n1Cc1cc(C)c(F)c(C)c1 [Example 45, N^1-(1-(4-fluoro-3,5-dimethylbenzyl)-5,6-dimethyl-1H-benzo[d]imidazol-2-yl)-N^1,N^2-dimethylethane-1,2-diamine trifluoroacetate]
20 | 5 to 30 | > 5 | Fc1ccc(Cn2c(C3CCNCC3)nc3ccccc32)cc1 [Example 56, 1-(4-fluorobenzyl)-2-(piperidin-4-yl)-1H-benzo[d]imidazole trifluoroacetate]
21 | 1 to 5 | 1 to 5 | Cc1ccc2nc(N3CCNCC3)n(Cc3ccc(F)c(Cl)c3)c2c1 [Example 61, 1-(3-chloro-4-fluorobenzyl)-6-methyl-2-(piperazin-1-yl)-1H-benzo[d]imidazole trifluoroacetate]
22 | < 1 | 0.5 to 1 | Fc1ccc(Cn2c(N3CCNCC3)nc3ccc(Br)cc32)cc1Cl [Example 63, 6-bromo-1-(3-chloro-4-fluorobenzyl)-2-(piperazin-1-yl)-1H-benzo[d]imidazole trifluoroacetate]
23 | 5 to 30 | > 5 | CCc1cc2c(cc1C)nc(N1CCNCC1)n2Cc1ccc(F)c(Cl)c1 [Example 66, 1-(3-chloro-4-fluorobenzyl)-6-ethyl-5-methyl-2-(piperazin-1-yl)-1H-benzo[d]imidazole trifluoroacetate]
24 | 5 to 30 | > 5 | CCc1cc2c(cc1C)nc(N1CCNCC1)n2Cc1ccc(F)c(CC)c1 [Example 67, 6-ethyl-1-(3-ethyl-4-fluorobenzyl)-5-methyl-2-(piperazin-1-yl)-1H-benzo[d]imidazole trifluoroacetate]
25 | 1 to 5 | 1 to 5 | Nc1ccccc1-c1cccc2c1nc(N1CCNCC1)n2Cc1ccc(F)c(Cl)c1 [Example 83, 2-(1-(3-chloro-4-fluorobenzyl)-2-(piperazin-1-yl)-1H-benzo[d]imidazol-4-yl)aniline trifluoroacetate]
26 | 1 to 5 | > 5 | NCCc1cccc2c1nc(N1CCNCC1)n2Cc1ccc(F)c(Cl)c1 [Example 98, 2-(1-(3-chloro-4-fluorobenzyl)-2-(piperazin-1-yl)-1H-benzo[d]imidazol-4-yl)ethan-1-amine trifluoroacetate]
27 | 1 to 5 | 1 to 5 | Cc1cc2c(nc(N3CCNCC3)n2Cc2ccc(F)c(Cl)c2)c(CCN)c1C [Example 101, 2-(1-(3-chloro-4-fluorobenzyl)-5,6-dimethyl-2-(piperazin-1-yl)-1H-benzo[d]imidazol-4-yl)ethan-1-amine trifluoroacetate]
28 | 1 to 5 | > 5 | Cc1cc2c(nc(N3CCNCC3)n2Cc2cc(C)c(F)c(C)c2)c(CCN)c1C [Example 102, 2-(1-(4-fluoro-3,5-dimethylbenzyl)-5,6-dimethyl-2-(piperazin-1-yl)-1H-benzo[d]imidazol-4-yl)ethan-1-amine trifluoroacetate]
